Data reported in ChEMBL document CHEMBL3632538, “Novel 5-carboxy-8-HQ based histone demethylase JMJD2A inhibitors: introduction of an additional carboxyl group at the C-2 position of quinoline” (Eur J Med Chem, 2015).
pIC50: −log10 of the molar value. ≈ marks a conversion by molar mass, not a printed value. Calls of active or inactive are those of the source. The rule behind the calls is not given here.

Assays:
[1] = target: T1, Lysine-specific demethylase 4A (Homo sapiens, UniProt O75164); assay: Inhibition of recombinant human JMJD2A using biotinylated histone H3 as substrate by AlphaScreen assay
T1 sequence (O75164 whole entry): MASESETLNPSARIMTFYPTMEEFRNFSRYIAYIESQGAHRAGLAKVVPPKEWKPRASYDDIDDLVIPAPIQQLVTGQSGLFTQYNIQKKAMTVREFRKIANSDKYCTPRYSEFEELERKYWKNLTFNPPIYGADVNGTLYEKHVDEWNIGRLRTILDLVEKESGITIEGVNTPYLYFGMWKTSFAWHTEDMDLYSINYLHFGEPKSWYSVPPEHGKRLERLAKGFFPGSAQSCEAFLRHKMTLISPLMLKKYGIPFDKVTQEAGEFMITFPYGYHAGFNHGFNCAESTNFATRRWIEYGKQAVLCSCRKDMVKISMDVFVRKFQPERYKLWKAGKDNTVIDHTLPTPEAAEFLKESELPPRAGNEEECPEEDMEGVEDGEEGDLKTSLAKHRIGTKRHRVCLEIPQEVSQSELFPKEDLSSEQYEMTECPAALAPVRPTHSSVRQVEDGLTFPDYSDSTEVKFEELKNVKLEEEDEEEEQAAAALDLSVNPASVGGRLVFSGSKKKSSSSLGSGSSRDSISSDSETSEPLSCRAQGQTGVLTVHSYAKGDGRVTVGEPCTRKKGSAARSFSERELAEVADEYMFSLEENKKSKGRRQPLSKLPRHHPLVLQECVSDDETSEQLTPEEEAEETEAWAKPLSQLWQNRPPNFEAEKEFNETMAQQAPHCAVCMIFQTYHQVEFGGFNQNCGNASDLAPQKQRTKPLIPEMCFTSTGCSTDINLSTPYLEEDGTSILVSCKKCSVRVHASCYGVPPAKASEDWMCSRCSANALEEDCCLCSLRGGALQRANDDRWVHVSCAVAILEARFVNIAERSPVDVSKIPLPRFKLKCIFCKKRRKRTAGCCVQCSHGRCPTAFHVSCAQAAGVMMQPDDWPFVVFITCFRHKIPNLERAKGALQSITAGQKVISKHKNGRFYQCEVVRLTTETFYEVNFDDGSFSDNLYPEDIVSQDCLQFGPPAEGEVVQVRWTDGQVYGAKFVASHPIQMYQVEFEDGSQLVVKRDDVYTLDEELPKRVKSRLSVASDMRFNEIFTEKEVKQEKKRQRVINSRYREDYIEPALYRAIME

[2] = target: Egl nine homolog 1 (Homo sapiens) (UniProt Q9GZT9); assay: Displacement of F-HIF1alpha from PHD2 (unknown origin) at 50 uM by fluorescence polarization assay relative to control
[3] = tested on: HCT-116; assay: Cytotoxicity against human HCT116 cells assessed as cell viability after 48 hrs by MTT assay; format: functional, cell-based; conditions: HCT-116, 48 h
[4] = Permeability of the compound at 10 mM after 4 hrs by PAMPA; format: physicochemical; conditions: read-out: permeability
[5] = tested on: A549; assay: Cytotoxicity against human A549 cells assessed as cell viability after 48 hrs by MTT assay; format: functional, cell-based; conditions: A549, 48 h
[6] = Partition co-efficient, log D of the compound at pH 7.4; format: physicochemical; conditions: buffer
[7] = tested on: MCF7; assay: Cytotoxicity against human MCF7 cells assessed as cell viability after 48 hrs by MTT assay; format: functional, cell-based; conditions: MCF7, 48 h
[8] = Intrinsic aqueous solubility of the compound after 24 hrs by UV spectrophotometric analysis; format: physicochemical; conditions: read-out: Intrinsic_solubility
[9] = target: T2, Lysine-specific demethylase 4A (Homo sapiens) (UniProt O75164); assay: Inhibition of JMJD2A in human HCT116 cells assessed as induction of H3K9me2 hypermethylation at 5 to 10 uM by Western blot analysis; format: cell-based; conditions: HCT-116
T2 sequence (whole entry): T1 sequence (O75164 whole entry)

[10] = target: T2, Lysine-specific demethylase 4A (Homo sapiens); assay: Inhibition of JMJD2A in human HCT116 cells assessed as induction of H3K9me3 hypermethylation at 5 to 10 uM by Western blot analysis; format: cell-based; conditions: HCT-116

Sequence of Egl nine homolog 1 (Homo sapiens) (Q9GZT9 2-426 limits assumed): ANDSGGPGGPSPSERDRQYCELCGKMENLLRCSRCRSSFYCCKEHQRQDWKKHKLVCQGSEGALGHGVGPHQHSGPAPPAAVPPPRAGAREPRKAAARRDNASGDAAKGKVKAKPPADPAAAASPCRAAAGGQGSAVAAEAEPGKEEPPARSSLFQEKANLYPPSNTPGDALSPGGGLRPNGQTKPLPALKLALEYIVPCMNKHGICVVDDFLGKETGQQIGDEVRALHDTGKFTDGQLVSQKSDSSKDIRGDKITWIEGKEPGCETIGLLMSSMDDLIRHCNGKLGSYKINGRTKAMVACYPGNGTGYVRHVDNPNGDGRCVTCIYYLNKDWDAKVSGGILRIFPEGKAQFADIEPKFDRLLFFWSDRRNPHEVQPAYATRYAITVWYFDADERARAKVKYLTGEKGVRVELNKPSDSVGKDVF

Row | Compound | pIC50 [1] | inhibition [2] [%] | Papp at 4 h, 10000 µM [4] [×10⁻⁶ cm/s] | logD [6] | solubility at 24 h [8] [µM] | inhibition [9] | inhibition [10] | pIC50 [3] | pIC50 [5] | pIC50 [7]
1 | COc1ccc(NC(=O)c2ccc3c(C(=O)O)ccc(O)c3n2)cc1 | < 4.00 | – | – | – | – | – | – | – | – | –
2 | O=C(Nc1ccc(F)cc1)c1ccc2c(C(=O)O)ccc(O)c2n1 | < 4.00 | – | – | – | – | – | – | – | – | –
3 | Cc1cccc(NC(=O)c2ccc3c(C(=O)O)ccc(O)c3n2)c1 | < 4.00 | – | – | – | – | – | – | – | – | –
4 | O=C(Nc1cccc2ccccc12)c1ccc2c(C(=O)O)ccc(O)c2n1 | < 4.00 | – | – | – | – | – | – | – | – | –
5 | COc1cccc(NC(=O)c2ccc3c(C(=O)O)ccc(O)c3n2)c1 | < 4.00 | – | – | – | – | – | – | – | – | –
6 | O=C(Nc1ccc(OC(F)(F)F)cc1)c1ccc2c(C(=O)O)ccc(O)c2n1 | < 4.00 | – | – | – | – | – | – | – | – | –
7 | CN(C)c1ccc(NC(=O)c2ccc3c(C(=O)O)ccc(O)c3n2)cc1 | < 4.00 | – | – | – | – | – | – | – | – | –
8 | O=C(Nc1ccccc1F)c1ccc2c(C(=O)O)ccc(O)c2n1 | < 4.00 | – | – | – | – | – | – | – | – | –
9 | O=C(NCc1ccccc1)c1ccc2c(C(=O)O)ccc(O)c2n1 | < 4.00 | – | – | – | – | – | – | – | – | –
10 | O=C(O)c1ccc(O)c2ncccc12 | – | 66.3 | 2 | -1.9 | 1200 (≈ 227 µg/mL) | – | – | 4.55 | 4.32 | 4.18
11 | O=C(NC1CCCCC1)c1ccc2c(C(=O)O)ccc(O)c2n1 | < 4.00 | – | – | – | – | – | – | – | – | –
12 | Cc1ccccc1NC(=O)c1ccc2c(C(=O)O)ccc(O)c2n1 | < 4.00 | – | 3.9 | 3 | 700 (≈ 226 µg/mL) | – | – | 4.22 | 4.02 | < 4.00

Continued, in another order:

Row | pIC50 [1] | inhibition [2] [%] | Papp at 4 h, 10000 µM [4] [×10⁻⁶ cm/s] | logD [6] | solubility at 24 h [8] [µM] | inhibition [9] | inhibition [10] | Compound | pIC50 [3] | pIC50 [5] | pIC50 [7]
13 | < 4.00 | – | – | – | – | – | – | Cc1ccc(NC(=O)c2ccc3c(C(=O)O)ccc(O)c3n2)cc1 | – | – | –
14 | < 4.00 | – | – | – | – | – | – | O=C(Nc1ccccc1)c1ccc2c(C(=O)O)ccc(O)c2n1 | – | – | –
15 | 5.43 | 17.6 | 3 | 0.4 | 3800 (≈ 989 µg/mL) | – | – | CN(C)C(=O)c1ccc2c(C(=O)O)ccc(O)c2n1 | < 4.00 | < 4.00 | < 4.00
16 | 5.74 | 23.9 | 2.3 | 1.5 | 3600 (≈ 1040 µg/mL) | – | – | CCN(CC)C(=O)c1ccc2c(C(=O)O)ccc(O)c2n1 | 4.95 | < 4.00 | < 4.00
17 | 4.09 | – | – | – | – | – | – | O=C(NCCCN1CCOCC1)c1ccc2c(C(=O)O)ccc(O)c2n1 | < 4.00 | < 4.00 | < 4.00
18 | 5.21 | 23.5 | – | – | – | – | – | Cc1ccc(NC(=O)c2ccc3c(C(=O)O)ccc(O)c3n2)nc1 | 4.14 | 4.65 | < 4.00
19 | 4.72 | 25 | 6.7 | 2.7 | 1300 (≈ 453 µg/mL) | Active | Active | O=C(Nc1nc2ccccc2[nH]1)c1ccc2c(C(=O)O)ccc(O)c2n1 | 5.82 | 4.66 | 4.56
20 | 4.62 | 20.6 | 3.6 | 2.9 | 900 (≈ 338 µg/mL) | – | – | O=C(NCCc1c[nH]c2ccccc12)c1ccc2c(C(=O)O)ccc(O)c2n1 | 4.17 | < 4.00 | < 4.00
21 | 5.29 | 9.1 | – | – | – | – | – | O=C(O)c1ccc(O)c2nc(C(=O)N3CCOCC3)ccc12 | < 4.00 | < 4.00 | < 4.00
22 | 5.80 | 18.7 | 3.3 | 0.3 | 4900 (≈ 1550 µg/mL) | – | – | CN1CCN(C(=O)c2ccc3c(C(=O)O)ccc(O)c3n2)CC1 | 4.02 | < 4.00 | 4.02
23 | 5.55 | 24 | 2.9 | 1.2 | 1200 (≈ 371 µg/mL) | – | – | O=C(Nc1ccccn1)c1ccc2c(C(=O)O)ccc(O)c2n1 | 4.17 | 4.14 | 4.36
